Measurements published in US6703506B2, “Amino acid ester containing azole antifungals” (Janssen Pharmaceutica, N.V., priority 1997, dated 2004).
Converted amounts (≈) assume the structure as drawn.

Assays:
[1] = Solubility (excess compound shaken 1 day at room temperature, HPLC); type: physicochemical; conditions: thermodynamic from solid
Procedure: An excess of compound was added to the solvent (the type of solvent is specified in table 6) The mixture was shaken during 1 day at room temperature. The precipitate was filtered off. The concentration of the compound was measured via HPLC and is shown in the column “Solubility”.

[2] = Chemical stability (open glass jar, 40° C., 75% relative humidity); type: physicochemical; conditions: 50 mg, after one week
Procedure: After one week, the amount of test compound remaining was determined.

Aspergillus fumigatus [3] = assay: Determination of fungal susceptibility (MIC); type: cell-based; conditions: CYG medium, 5 days at 30° C., growth to 35% of control or less
Procedure: (§1) A panel of Candida isolates plus single isolates of the dermatophytes Microsporum canis, Trichophyton rubrum and T. mentagrophytes; Aspergillus fumigates, and Cryptococcus neoformans were used to evaluate the activity of the test compounds in vitro. Inocula were prepared as broth cultures (yeasts) or as suspensions of fungal material made from agar slope cultures (moulds). The test compounds were pipetted from DMSO stock solution into water to provide a series of 10-fold dilutions. The fungal inocula were suspended in the growth medium CYG (F. C. Odds, Journal of Clinical Microbiology, 29, (2735-2740, 1991) at approximately 50,000 colony-forming units (CFU) per ml and added to the aqueous test drugs. The cultures were set up in the 96 wells of plastic microdilution plates and they were incubated for 2 days at 37° C. (Candida spp.) or for 5 days at 30° C. (other fungi). Growth in the microcultures was measured by their optical density (OD) measured at a wavelength of 405 nm. The OD for cultures with test compounds was calculated as a percentage of the control, drug-free OD. Inhibition of growth to 35% of control or less was recorded as significant inhibition.
(§2) Minimal inhibitory concentration (MICs; in 10^−6 M) of intermediate 2 as the major metabolite and some of the compounds of formula (I) for Candida glabrata, Candida krusel, Candida parapsilosis, Candida albicans, Candida kefyr, Candida tropicalis, Microsporum canis, Trichophyton rubrum, Trichophyton mentagrophytes, Cryptococcus neoformans, Aspergillus fumigatus are listed in table 8.

Candida albicans [4] = assay: Determination of fungal susceptibility (MIC); type: cell-based; conditions: CYG medium, 2 days at 37° C., growth to 35% of control or less
Procedure: as §1, §2

Candida glabrata = assay: Determination of fungal susceptibility (MIC); type: cell-based; conditions: CYG medium, 2 days at 37° C., growth to 35% of control or less
Procedure: as §1, §2

Candida kefyr = assay: Determination of fungal susceptibility (MIC); type: cell-based; conditions: CYG medium, 2 days at 37° C., growth to 35% of control or less
Procedure: as §1, §2

Candida krusei = assay: Determination of fungal susceptibility (MIC); type: cell-based; conditions: CYG medium, 2 days at 37° C., growth to 35% of control or less
Procedure: as §1, §2

Candida parapsilosis = assay: Determination of fungal susceptibility (MIC); type: cell-based; conditions: CYG medium, 2 days at 37° C., growth to 35% of control or less
Procedure: as §1, §2

Candida tropicalis = assay: Determination of fungal susceptibility (MIC); type: cell-based; conditions: CYG medium, 2 days at 37° C., growth to 35% of control or less
Procedure: as §1, §2

Cryptococcus neoformans = assay: Determination of fungal susceptibility (MIC); type: cell-based; conditions: CYG medium, 5 days at 30° C., growth to 35% of control or less
Procedure: as §1, §2

Microsporum canis = assay: Determination of fungal susceptibility (MIC); type: cell-based; conditions: CYG medium, 5 days at 30° C., growth to 35% of control or less
Procedure: as §1, §2

[5] = tested on: Trichophyton mentagrophytes; assay: Determination of fungal susceptibility (MIC); type: cell-based; conditions: CYG medium, 5 days at 30° C., growth to 35% of control or less
Procedure: as §1, §2

Trichophyton rubrum = assay: Determination of fungal susceptibility (MIC); type: cell-based; conditions: CYG medium, 5 days at 30° C., growth to 35% of control or less
Procedure: as §1, §2

Aspergillus fumigatus [6] = assay: Disseminated aspergillosis in guinea-pigs; type: in vivo; conditions: for CFU/g (liver): culture-positive livers post mortem; for % neg (total percentage culture-negative deep tissues): liver, spleen, kidney, lung and brain
Procedure: (§3) Specific pathogen-free (SPF) guinea-pigs (weighing 400-500 g) were used in all experiments. A catheter was placed into the left jugular vein of the animals that were treated by intravenous infusion, the vein was ligated, and the catheter was connected to a microprocessor-controlled infusion pump. The animals were infected with Aspergillus fumigatus (4,000 CFU/g body weight) or with Candida albicans (40,000 CFU/g body weight) either via the lateral vein of the penis or via the implanted catheter. Intravenous treatments (5 mg/kg/day) began 1 hour after infection. The test formulations were then administered on subsequent days as two, 1 hour infusions daily, separated by a period of 5 hours, for a total of 19 infusions or 9.5 days. Oral treatments with the test compounds (5 mg/kg/day) begun 1 hour after infection and were repeated twice daily up to the tenth day after infection (a total of 19 treatments. For each group of tested animals (number of tested animals per group given in column “N”), the mean survival time (MST) in days was recorded as well as the % survivors (% surv). Animals of each group which died during the experiment and those that survived the experiment and were killed, were investigated for counts of Aspergillus fumigatus and Candida albicans in deep tissue (liver, spleen, kidney, lung and brain) post mortem. The remaining CFU/g in the culture-positive livers was measured and expressed in table 9 (after intravenous treatment) and table 10 (after oral treatment) as mean log10 CFU/g. The columns “%neg” in tables 9 and 10 express the total percentage culture-negative deep tissues after the treatment.

Candida albicans [7] = assay: Disseminated candidosis in guinea-pigs; type: in vivo; conditions: for CFU/g (liver): culture-positive livers post mortem; for % neg (total percentage culture-negative deep tissues): liver, spleen, kidney, lung and brain
Procedure: as §3

[8] = i.v. treatment 5 mg/kg/day, 19 infusions, 9.5 days
[9] = oral treatment 5 mg/kg/day, twice daily, 19 treatments

Compound: C[C@H](OC(=O)[C@@H](N)Cc1ccccc1)[C@H](C)n1ncn(-c2ccc(N3CCN(c4ccc(OC[C@@H]5CO[C@@](Cn6cncn6)(c6ccc(F)cc6F)O5)cc4)CC3)cc2)c1=O (relative stereo) [Compound 23, [2S-[2α,4α[(R*,R*)]]]-2-[4-[4-[4-[4-[[2-(2,4-difluorophenyl)-2-(1H-1,2,4-triazol-1-ylmethyl)-1,3-dioxolan-4-yl]methoxy]-phenyl]-1-piperazinyl]-phenyl]-4,5-dihydro-5-oxo-1H-1,2,4-triazol-1-yl]-1-methylpropyl L-phenylalanine]
- solubility at 1 day ([1]; aqueous buffer, solvent 0.0001M HCl, final pH in column pH of the same row (3.17-6.68)): 20 µg/mL (≈ 23.9 µM)
- solubility at 1 day ([1]; simulated gastric fluid, solvent 0.1M HCl, final pH in column pH of the same row (1.23-1.55)): > 5560 µg/mL
- Stability (amount of test compound remaining) [2]: 99.7%
- MIC (Aspergillus fumigatus [3]): 1 10^−6 M
- MIC (Candida albicans [4]): <0.1 10^−6 M
- MIC (Candida glabrata): 10 10^−6 M
- MIC (Candida kefyr): <0.1 10^−6 M
- MIC (Candida krusei): 1 10^−6 M
- MIC (Candida parapsilosis): <0.1 10^−6 M
- MIC (Candida tropicalis): <0.1 10^−6 M
- MIC (Cryptococcus neoformans): 1 10^−6 M
- MIC (Microsporum canis): <1 10^−6 M
- MIC [5]: 1 10^−6 M
- MIC (Trichophyton rubrum): <0.1 10^−6 M
- CFU/g (liver) (Aspergillus fumigatus [6]; i.v. treatment 5 mg/kg/day): 3.6 mean log10 CFU/g
- CFU/g (liver) (Aspergillus fumigatus [6]; oral treatment 5 mg/kg/day): 3.0 mean log10 CFU/g
- % surv (% survivors) (Aspergillus fumigatus [6]; [8]): 83.3%
- MST (mean survival time) (Aspergillus fumigatus [6]; [8]): 9.2 days
- % neg (total percentage culture-negative deep tissues) (Aspergillus fumigatus [6]; i.v. treatment 5 mg/kg/day): 71%
- % neg (total percentage culture-negative deep tissues) (Aspergillus fumigatus [6]; oral treatment 5 mg/kg/day): 55%
- % surv (% survivors) (Aspergillus fumigatus [6]; [9]): 30%
- MST (mean survival time) (Aspergillus fumigatus [6]; [9]): 7.8 days
- CFU/g (liver) (Candida albicans [7]; i.v. treatment 5 mg/kg/day): 0 mean log10 CFU/g
- CFU/g (liver) (Candida albicans [7]; oral treatment 5 mg/kg/day): 0 mean log10 CFU/g
- % surv (% survivors) (Candida albicans [7]; [8]): 83.3%
- MST (mean survival time) (Candida albicans [7]; [8]): 9.8 days
- % neg (total percentage culture-negative deep tissues) (Candida albicans [7]; i.v. treatment 5 mg/kg/day): 79%
- % neg (total percentage culture-negative deep tissues) (Candida albicans [7]; oral treatment 5 mg/kg/day): 73%
- % surv (% survivors) (Candida albicans [7]; [9]): 100%
- MST (mean survival time) (Candida albicans [7]; [9]): 10 days
